Series [1] in a line: Pain perception of intradermal injection/infusion, Gracely Box SL Scale (0-20), human clinical study. It is filed as in vivo. As to conditions: recent clinical trials. As to the method:
A series of prospective, randomized, open label human clinical studies were conducted. The following inclusion criteria was typically used: • 18 years of age or older • In stable health status with no acute or severe illness • Willing to complete all study procedures • Available for designated study days
Typically, each participating subject received a series of ‘treatments’ consisting of intradermal infusions or injections of either sterile unpreserved isotonic saline, or sterile bacteriostatic isotonic saline for injection in the anterior thigh using microneedle-based intradermal injection devices. Participants were asked to rate the pain immediately after the device was applied to the skin, and at the end of the injection/infusion procedure. In addition, injection sites were evaluated for irritation using the Draize dermal irritation scoring scale for erythema and edema, and for the presence of any other adverse skin effects, occurring at the time of injection or developing at a later time. […]
Pain was determined using a Gracely Box SL Scale (reference: Heft, Gracely and Dubner, Pain, 1980, 9:363-373). Pain scores were typically recorded after insertion of the intradermal delivery device, and upon complete intradermal instillation of the total saline dose. […]
Typically, pain scale scores were analyzed by ANOVA using a linear-type model. […]

Series [2] can be described thus: Dermal irritancy of preservatives in intradermal formulations (Draize dermal irritation scoring). The series is classed as in vivo, human. As to conditions: irritancy potential had been seen in animal models such as swine. An excerpt:
Benzyl alcohol, m-cresol and other preservatives were previously thought to be deleterious for inclusion in ID formulations based on their potential for dermal irritancy measured in animal models such as swine (Draize Irritancy Scores, NB 00-8440-01). In humans, however, these effects are not observed and beneficial results are gained in the perception of reduced pain.
Typically, each participating subject received a series of ‘treatments’ consisting of intradermal infusions or injections of either sterile unpreserved isotonic saline, or sterile bacteriostatic isotonic saline for injection in the anterior thigh using microneedle-based intradermal injection devices. Participants were asked to rate the pain immediately after the device was applied to the skin, and at the end of the injection/infusion procedure. In addition, injection sites were evaluated for irritation using the Draize dermal irritation scoring scale for erythema and edema, and for the presence of any other adverse skin effects, occurring at the time of injection or developing at a later time.

As to insulin, the “Pain scores for intradermal delivery compared with preservative-free solutions” value in series [1] is “significantly lower pain scores”.
`Cc1cccc(O)c1` [m-cresol]: the “Dermal irritancy effects in humans” value in series [2] is given as “not observed”.
Take `OCc1ccccc1` [Benzyl alcohol]: the “Dermal irritancy effects in humans” value in series [2] was “not observed”.

Values taken from US20050203000A1, “Use of benzyl alcohol, and other phenolic preservatives to reduce pain during intradermal injection” (priority 2003, published 2005).
